Patent US4536578A, “1-[3-(6-Fluoro-1,2-benzisoxazol-3-yl)propyl]-4-(substituted)piperazines” (Hoechst-Roussel Pharmaceuticals Inc., priority 1982, dated 1985)
Counter-ions that a name gives are not always drawn. Like-named read-outs stand apart in the source and are kept apart here.

How the values were obtained:
[1] = tested on: apomorphine-induced climbing; assay: climbing mice assay (apomorphine-induced climbing); assay type: in vivo; conditions: intraperitoneal 30 min before apomorphine 1.5 mg/kg s.c.
Description: The subject CK-1 male mice (23-27 grams) are group-housed under standard laboratory conditions. The mice are individually placed in wire mesh stick cages (4"×4" by 10") and are allowed one hour for adaptation and exploration of the new environment.
For evaluation of climbing, 3 readings are taken at 10, 20 and 30 minutes after apomorphine administration according to the following scale:
Mice consistently climbing before the injection of apormorphine will be discarded.
With full-developed apomorphine climbing, the animals are hanging onto the cage walls, rather motionless, over longer periods of time. By contrast, climbs due to mere motor stimulation usually only last a few seconds.
The climbing scores are individually totaled (maximal score: 6 per mouse over 3 readings) and the total score of the control group (vehicle intraperitoneally--apomorphine subcutaneously) is set to 100%.

conditioned avoidance = assay: Sidman Avoidance Paradigm in squirrel monkeys; assay type: in vivo, squirrel monkeys (Saimiri sciureus); conditions: Primates
Description: The subjects are male squirrel monkeys (Saimiri sciureus). They are housed in individual home cages in the animal quarters for at least six weeks prior to training. When they are not in the test chambers, the subjects are maintained in their home cages with water available ad libitum and food available twice daily.
The apparatus consists of test cages (BRS/LVE) with a single lever and house-light. This is enclosed in a sound-attenuating chamber (BRS/LVE) with fan and the chambers are in an isolated room equipped with a speaker emitting a white-noise auditory background. The test cages have a grid floor of steel bars which are attached to a scrambled shock source (Coulbourn Instruments). The house-lights, shockers and response levers are controlled by BRS/LVE electromechanical timer and controls. The records of responses and shocks are recorded on Coulbourn print-out counters and Gerbrands cumulative recorders.
The monkeys are trained to avoid an unsignaled shock by repetitive lever-pressing responses. A shock (1.0 mA for 0.5 seconds) is delivered to the grid floor every 20 seconds if no responses are made (shock-shock interval of 20 seconds: SS-20"). A lever-press (response) will delay the oncoming shock for 20 seconds (Response-Shock interval of 20 seconds: RS-20").
Every 15 minutes the total number of shocks received and the total number of responses made are accumulated and constitute the basic data. The animals are trained until they maintain a stable response-rate and are receiving no more than 50 shocks per 4 hour test session. After reaching these criteria of performance, experimental compounds are administered and their effects on the performance of this learned avoidance behavior are evaluated.
The drug's effect on performance of each animal is compared to the performance data generated in the previous non-drug session. Each animal thereby serves as its own control. The basic measures of performance during a specific time interval, responses and shocks, are used for evaluation. Responses are reported both as totals and as percent of control responses. Shocks are reported as totals and as shock-avoided (SHA) as percent of control. This latter measure is computed by subtracting the number of shocks received from the total number of possible shocks if no responses are made.
However, an ED50 may be estimated during a representative time of peak activity.

[2] = tested on: phenyl-para-quinone induced writhing; assay: phenyl-para-quinone writhing assay in mice (analgesia); assay type: in vivo; conditions: Mus musculus, sc, read-out: Analgesic Activity ED50 (dose at which 50% of the phenyl-para-quinone induced writhing is inhibited)
Description: Exptl. Biol. Med., 95, 729 (1957)]. Presented in Table I is the analgesic effect of some of the compounds of the invention, expressed as the subcutaneous dose at which 50% of the phenyl-para-quinone induced writhing is inhibited in the animals, i.e., the ED50.

[3] = tested on: extrapyramidal symptomatology; conditions: monkey, in vivo, po
Description: Adult male squirrel monkeys (Saimiri sciurens) are housed in individual home cages and fed twice daily with water available "ad libitum" when they are not in the test chambers.
On the test day, drugs are administered by oral intubation immediately prior to testing in volumes of 1.0 cc/kg of body weight. The compounds are dissolved in distilled water or suspended with the addition of one drop of Tween-80 per 10 cc of solution.
After dosing, the monkeys are placed in observation chambers in an isolated room. Two experienced investigators observe the monkeys for dyskinetic symptomatology at 2, 4 and 6 hours postdose. They score the monkeys for the following specific dyskinetic symptomatology:
Circling--when the monkey rapidly circles the cage floor
"Duck walk"--when the monkey walks in a seated position with arms curled and held tightly to his side
Limb extension--an abnormal, prolonged extension of one or more limbs, similar to but of longer duration than a stretching motion
Pushing--the monkey will push against the cage wall with his head or body, frequently at the end of a circling episode
Writhing--slow, writhing movements of the whole body frequently in conjunction with a pushing episode
Oral dyskinesias--chewing, gnawing and abnormal tongue protrusions
The following scoring index is used in order to quantify the severity of symptoms:

[4] = tested on: spontaneous hypertensive rat; assay: antihypertensive activity in the spontaneous hypertensive rat, indirect tail cuff method; assay type: in vivo; conditions: 50 mg/kg of body wt, intraperitoneal, 3 days, measured on third day, group of 4 rats
Description: According to this procedure, the test compound is administered intraperitoneally to a group of 4 rats for 3 days. The decrease in blood pressure is measured on the third day of administration.

[5] = squirrel monkeys, oral intubation immediately prior to testing, avoidance response, read-out: Antipsychotic Activity, Avoidance Response ED50
[6] = squirrel monkeys, oral intubation immediately prior to testing, escape response, read-out: Antipsychotic Activity, Escape Response ED50

`COc1ccccc1N1CCN(CCCc2noc3cc(F)ccc23)CC1` [Example 1, 1-[3-(6-Fluoro-1,2-benzisoxazol-3-yl)propyl]-4-(2-methoxyphenyl)piperazine dihydrochloride] was tested, and the “Antipsychotic Activity (% decrease in climbing score)” value ([1]; dose 4.1 mg/kg of body wt) was 50%, the ED50 (conditioned avoidance; [5]) was 2.9 mg/kg and the ED50 (conditioned avoidance; [6]) was 4.8 mg/kg. The ED50 (conditioned avoidance; squirrel monkeys, oral, printed as dose with * in Table V, read-out: ED50 value in the Sidman Avoidance Paradigm in squirrel monkeys (footnote * to Table V)) was 3.5 mg/kg, the ED50 ([2]; mice, subcutaneous) was 5.2 mg/kg and the “% Monkeys showing extrapyramidal symptoms” value ([3]; 3.5 mg/kg) was 0%. For the same molecule, the “% Monkeys showing extrapyramidal symptoms” value ([3]; 5 mg/kg) was 0% and the “% Monkeys showing extrapyramidal symptoms” value ([3]; 10 mg/kg) was 66%.

In the case of `Fc1ccc2c(CCCN3CCN(c4ccccc4)CC3)noc2c1.O=C(O)C(=O)O` [Example 2, 1-[3-(6-Fluoro-1,2-benzisoxazol-3-yl)propyl]-4-phenylpiperazine oxalate], the “Blood Pressure Decrease (mean arterial blood pressure)” value (from here on “Blood Pressure Decrease”) [4] is reported as 38 mm/mercury, the “Antipsychotic Activity (% decrease in climbing score)” value ([1]; dose 10 mg/kg of body wt) is reported as 31% and the ED50 ([2]; mice, subcutaneous) is reported as 1.8 mg/kg.

For `Fc1ccc(N2CCN(CCCc3noc4cc(F)ccc34)CC2)cc1.O=C(O)C(=O)O` [Example 3, 1-[3-(6-Fluoro-1,2-benzisoxazol-3-yl)propyl]-4-(4-fluorophenyl)piperazine oxalate], the “Blood Pressure Decrease” value [4] was 33 mm/mercury.

For `Cl.Fc1ccc2c(CCCN3CCN(c4ccccc4Cl)CC3)noc2c1` [Example 4, 4-(2-Chlorophenyl)-1-[3-(6-fluoro-1,2-benzisoxazol-3-yl)propyl]piperazine hydrochloride], the “Blood Pressure Decrease” value [4] was 55 mm/mercury.

With `Cl.Fc1ccc2c(CCCN3CCN(c4cccc(C(F)(F)F)c4)CC3)noc2c1` [Example 5, 1-[3-(6-Fluoro-1,2-benzisoxazol-3-yl)propyl]-4-(3-trifluoromethylphenyl)piperazine hydrochloride] the “Blood Pressure Decrease” value [4] was 66 mm/mercury.

With `Cc1ccccc1N1CCN(CCCc2noc3cc(F)ccc23)CC1` [Example 6, 1-[3-(6-Fluoro-1,2-benzisoxazol-3-yl)propyl]-4-(2-methylphenylpiperazine oxalate] the “Blood Pressure Decrease” value [4] was 33 mm/mercury.

`Cl.Cl.Fc1ccc2c(CCCN3CCN(c4ccccn4)CC3)noc2c1` [Example 10, 1-[3-(6-Fluoro-1,2-benzisoxazol-3-yl)propyl]-4-(2-pyridyl)piperazine dihydrochloride] was tested, and the “Blood Pressure Decrease” value [4] was 66 mm/mercury, the “Antipsychotic Activity (% decrease in climbing score)” value ([1]; dose 10 mg/kg of body wt) was 31% and the ED50 ([2]; mice, subcutaneous) was 0.8 mg/kg.

`N=C(N)NCCN1CCCCCCC1` [guanethidine, reference compound] was tested, and the “Blood Pressure Decrease” value [4] was 20 mm/mercury.

In the case of `O=C(CCCN1CCC(O)(c2ccc(Cl)cc2)CC1)c1ccc(F)cc1` [haloperidol], the “Antipsychotic Activity (% decrease in climbing score)” value ([1]; dose 0.11 mg/kg of body wt) is reported as 50%, the ED50 (conditioned avoidance; po, read-out: Antipsychotic Activity, Avoidance Response ED50) is reported as 1.21 mg/kg and the ED50 (conditioned avoidance; po, read-out: Antipsychotic Activity, Escape Response ED50) is reported as 1.27 mg/kg. The ED50 (conditioned avoidance; po, read-out: ED50 value in the Sidman Avoidance Paradigm in squirrel monkeys (footnote * to Table V)) was 1.3 mg/kg, the “% Monkeys showing extrapyramidal symptoms” value ([3]; 0.625 mg/kg) was 33% and the “% Monkeys showing extrapyramidal symptoms” value ([3]; 1.3 mg/kg) was 100%.

Molecule `CC(C)=CCN1CCC2(C)c3cc(O)ccc3CC1C2C` (centres unmarked) [pentazocine, reference compound] has an ED50 [2] of 1.3 mg/kg.

`CCC(=O)O[C@](Cc1ccccc1)(c1ccccc1)[C@H](C)CN(C)C` [propoxyphene, reference compound] was tested, and the ED50 [2] was 3.9 mg/kg.

`CSc1ccc2c(c1)N(CCC1CCCCN1C)c1ccccc1S2` (centres unmarked) [thioridazine] was tested, and the “Antipsychotic Activity (% decrease in climbing score)” value ([1]; dose 3.5 mg/kg of body wt) was 50%, the ED50 (conditioned avoidance; [5]) was 2.6 mg/kg and the ED50 (conditioned avoidance; [6]) was 3.5 mg/kg. The “% Monkeys showing extrapyramidal symptoms” value ([3]; 3.5 mg/kg) was 100% and the “% Monkeys showing extrapyramidal symptoms” value ([3]; 7 mg/kg) was 100%.
